Literature values, collected in patent US20030175210A1, “Individualization of therapy with anxiolitics” (McGill University, priority 2001, published 2003).

Conditions: in vivo

O=C1Nc2ccc(Cl)cc2C(c2ccccc2Cl)=NC1O (stereo not shown) [Lorazepam]
half-life: 10 to 15 h
